Among the test systems are UO-31; NCI-H522; MCF7; MOLT-4; MDA-MB-435; CCRF-CEM; A549; SR; HOP-62; SK-MEL-2; LOX IMVI; SF-539; EKVX; SK-MEL-28; UACC-62; M14; T47D; 786-0; OVCAR-5; COLO 205.
Common to all, as to test: inhibition of tumour cell growth, NCI panel, 48 h

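Exposure lasted 48 hours, with cells grown in 96-well plates and compounds tested at five concentrations. GI50 = concentration required for 50% inhibition of growth.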 Active and inactive are the calls of the source. Cut-off read from the data, not from the text of the source: active = GI50 up to about 1.1 µM and inactive = higher.

On to `Clc1ccc(-c2c(C3=NCCCN3)nnn2-c2ccc(Cl)cc2)cc1`, for which the GI50 in the test on UO-31 is 39.1 µM (inactive); in the test with NCI-H522 it was 32.9 µM (inactive); with MCF7, 26.8 µM (inactive); in the test on MOLT-4 it was 27.4 µM (inactive); in the test on MDA-MB-435 it was 19.2 µM (inactive); in the test on CCRF-CEM, 31.8 µM (inactive). For the same molecule, the GI50 in the test on A549 is > 76 µM (inactive); with SR, 15.7 µM (inactive); in the test with HOP-62, 55.5 µM (inactive); with SK-MEL-2, 17.4 µM (inactive); in the test on LOX IMVI it was 21.1 µM (inactive); with SF-539, 31.4 µM (inactive). The GI50 with EKVX is 63.1 µM (inactive); in the test with SK-MEL-28 it was 17.1 µM (inactive); in the test on UACC-62, 18.5 µM (inactive); in the test with M14 it was 16.7 µM (inactive); with T47D it was 31.3 µM (inactive); in the test on 786-0 it was 40.9 µM (inactive). The GI50 in the test with OVCAR-5 is 35.3 µM (inactive); in the test on COLO 205 it was 16.6 µM (inactive).

In the case of `COc1ccc(-c2cc(-c3ccccc3)n(C3OCC(OC(C)=O)C(OC(C)=O)C3OC(C)=O)c(=S)c2C#N)cc1` (centres undefined), the GI50 is 28.6 µM (inactive) in the test with UO-31; 66.5 µM (inactive) with NCI-H522; > 100 µM (inactive) with MCF7; > 100 µM (inactive) in the test with MOLT-4; > 100 µM (inactive) in the test with MDA-MB-435; > 100 µM (inactive) in the test on CCRF-CEM. Also, the GI50 with A549 was > 100 µM (inactive); with SR, > 100 µM (inactive); in the test with HOP-62, > 100 µM (inactive); in the test on SK-MEL-2, 25 µM (inactive); in the test with LOX IMVI, > 100 µM (inactive); in the test with SF-539 it was > 100 µM (inactive). Also, the GI50 in the test on EKVX was > 100 µM (inactive); in the test with SK-MEL-28, > 100 µM (inactive); in the test on UACC-62, 53 µM (inactive); in the test on M14 it was > 100 µM (inactive); in the test with T47D, 78.7 µM (inactive); in the test with OVCAR-5, 87.1 µM (inactive). The GI50 in the test on COLO 205 was > 100 µM (inactive).

Regarding `O=C1C(Cl)=CC2(C=C1Cl)CCNC1=C2C(=O)c2nc[nH]c2C1=O`, the GI50 with UO-31 is > 100 µM (inactive); with NCI-H522, 21.1 µM (inactive); in the test on MCF7, 22.3 µM (inactive); with MOLT-4, 26.9 µM (inactive); in the test with MDA-MB-435, 18.2 µM (inactive); with CCRF-CEM, 30.8 µM (inactive). For the same molecule, the GI50 in the test with A549 is > 100 µM (inactive); with SR, 2.12 µM (inactive); with HOP-62, > 100 µM (inactive); with SK-MEL-2, 17.3 µM (inactive); in the test with LOX IMVI, 20 µM (inactive); in the test with SF-539, 33.5 µM (inactive). Also, the GI50 in the test with EKVX was 51.8 µM (inactive); in the test on SK-MEL-28 it was 33.7 µM (inactive); with UACC-62 it was 18.3 µM (inactive); in the test on M14, 39 µM (inactive); in the test with T47D it was 99.8 µM (inactive); in the test on 786-0 it was 41.3 µM (inactive). Also, the values for the GI50 with OVCAR-5 and in the test with COLO 205 were > 100 µM (inactive) and 22.9 µM (inactive), respectively.

`Cc1c(N2C(=O)/C(=C/C=C/c3ccccc3)N=C2c2ccccc2)c(=O)n(-c2ccccc2)n1C`: the GI50 in the test with UO-31 was 18.4 µM (inactive); with NCI-H522, 16 µM (inactive); in the test with MCF7, 28.8 µM (inactive); in the test on MOLT-4, 14.9 µM (inactive); in the test with MDA-MB-435, 17 µM (inactive); in the test on CCRF-CEM, 27.2 µM (inactive). The GI50 with A549 is 25.6 µM (inactive); in the test with SR, 17.4 µM (inactive); with HOP-62, 26.5 µM (inactive); in the test with SK-MEL-2 it was 21.8 µM (inactive); in the test on LOX IMVI, 21.5 µM (inactive); with SF-539, 21.3 µM (inactive). For the same molecule, the GI50 in the test on EKVX was 15.6 µM (inactive); in the test with UACC-62, 16.4 µM (inactive); with M14 it was 31.4 µM (inactive); in the test with T47D it was 30.8 µM (inactive); in the test with 786-0, 29.3 µM (inactive); in the test on OVCAR-5, 24.8 µM (inactive). In the test with COLO 205, the GI50 is 15.5 µM (inactive).

Regarding `N#Cc1c(N)n(-c2nc3ccccc3s2)c(=O)c2cc([N+](=O)[O-])ccc12`, the GI50 in the test on UO-31 is 21.7 µM (inactive); with NCI-H522 it was 6.49 µM (inactive); in the test with MCF7, 7.21 µM (inactive); in the test with MOLT-4 it was 5.46 µM (inactive); in the test with MDA-MB-435, 25 µM (inactive); with CCRF-CEM, 0.0453 µM (active). Besides, the GI50 with A549 is 14.6 µM (inactive); with SR it was 14.2 µM (inactive); in the test on HOP-62, 7.08 µM (inactive); in the test on SK-MEL-2 it was 15.4 µM (inactive); with LOX IMVI, 7.03 µM (inactive); with SF-539, 12.4 µM (inactive). The GI50 is 23.3 µM (inactive) with EKVX; 26.7 µM (inactive) with SK-MEL-28; 21.3 µM (inactive) in the test with UACC-62; 23.2 µM (inactive) in the test on M14; 21.8 µM (inactive) in the test on T47D; 21.7 µM (inactive) in the test with 786-0. The GI50 in the test with OVCAR-5 is 24.8 µM (inactive).

Consider `CCCCn1c(C)c2c(c1C)C(=O)N(CCN1CCN(c3ccccc3Cl)CC1)C2=O`, for which the GI50 with UO-31 was 17.6 µM (inactive); in the test with NCI-H522 it was 25.5 µM (inactive); with MCF7 it was 32.4 µM (inactive); in the test on MOLT-4, 22 µM (inactive); with MDA-MB-435 it was 32.4 µM (inactive); in the test on CCRF-CEM, 29.3 µM (inactive). Also, the GI50 in the test with A549 was 38.2 µM (inactive); with SR, 26.4 µM (inactive); with HOP-62, 29 µM (inactive); in the test on SK-MEL-2 it was 20 µM (inactive); in the test with LOX IMVI, 16.5 µM (inactive); with SF-539 it was 17.9 µM (inactive). Moreover, the GI50 in the test on EKVX was 35.6 µM (inactive); in the test with UACC-62, 32.4 µM (inactive); in the test on M14, 21.9 µM (inactive); in the test with T47D, 22.5 µM (inactive); with 786-0 it was > 10 µM (inactive); with OVCAR-5, 61.8 µM (inactive). Moreover, the GI50 with COLO 205 is 35 µM (inactive).

As for `C=CCOc1ccc(C2(c3ccc(OCC=C)cc3)C(=O)Nc3ccccc32)cc1`, the GI50 with NCI-H522 is > 10 µM (inactive); with MCF7, 8.57 µM (inactive); in the test with MOLT-4 it was > 10 µM (inactive); in the test with MDA-MB-435, > 10 µM (inactive); in the test on CCRF-CEM, > 10 µM (inactive); in the test on A549, > 10 µM (inactive). In addition, the GI50 in the test on SR, in the test with HOP-62, in the test with SK-MEL-2, in the test with LOX IMVI, in the test on SF-539 and with EKVX was > 10 µM (inactive) each time. Also, the GI50 in the test with SK-MEL-28 was > 10 µM (inactive); in the test with UACC-62, > 10 µM (inactive); with M14, > 10 µM (inactive); in the test on T47D, 8.13 µM (inactive); in the test on 786-0, > 10 µM (inactive); in the test on OVCAR-5, > 10 µM (inactive). Besides, in the test with COLO 205, the GI50 is 7.19 µM (inactive).

Turning to `COc1nc(=O)n(C2CC(N=[N+]=[N-])C(CO)O2)cc1C` (centres undefined), the GI50 in the test with UO-31 is 52 µM (inactive); with NCI-H522, > 100 µM (inactive); in the test on MCF7 it was > 100 µM (inactive); with MOLT-4 it was > 100 µM (inactive); in the test on MDA-MB-435 it was > 100 µM (inactive); in the test on CCRF-CEM, > 100 µM (inactive). For the same molecule, the GI50 with A549, in the test on SR, in the test on HOP-62, in the test with SK-MEL-2, in the test with LOX IMVI and in the test with SF-539 was > 100 µM (inactive) in each case. The GI50 with EKVX, with SK-MEL-28, with UACC-62, with M14, in the test with T47D and with 786-0 was > 100 µM (inactive) each time. Besides, the GI50 in the test on OVCAR-5 was > 100 µM (inactive).

With `CSc1ccc2c(cc1=O)[C@@H](NC(=O)c1ccc([N+](=O)[O-])cc1)CCc1cc(O)c(O)c(O)c1-2`, the GI50 is 78.3 µM (inactive) in the test with UO-31; 37.2 µM (inactive) in the test with NCI-H522; 31.8 µM (inactive) in the test with MCF7; 30.6 µM (inactive) with MOLT-4; 16.6 µM (inactive) in the test on MDA-MB-435; 4.58 µM (inactive) in the test on CCRF-CEM. The GI50 in the test on A549 is 28.1 µM (inactive); in the test with SR it was 3.99 µM (inactive); with HOP-62, 16.2 µM (inactive); in the test on SK-MEL-2 it was > 100 µM (inactive); with LOX IMVI, 34.8 µM (inactive); with SF-539, 28.8 µM (inactive). Besides, the GI50 was > 100 µM (inactive) with EKVX; > 100 µM (inactive) in the test with SK-MEL-28; 53.3 µM (inactive) with UACC-62; 30.5 µM (inactive) in the test with M14; > 100 µM (inactive) with T47D; 29.8 µM (inactive) in the test on 786-0. Moreover, the GI50 in the test with OVCAR-5 was > 100 µM (inactive); in the test on COLO 205, 24.7 µM (inactive).

Consider `c1ccc2c3c(c(N4CCNCC4)nc2c1)CCCC3`, for which the GI50 in the test with UO-31 was 2.9 µM (inactive); in the test with NCI-H522 it was 15.3 µM (inactive); in the test on MCF7, 14.4 µM (inactive); in the test with MOLT-4, 16.1 µM (inactive); in the test on MDA-MB-435 it was 11.4 µM (inactive); in the test with CCRF-CEM it was 9.98 µM (inactive). Also, the GI50 with A549 is 15.1 µM (inactive); in the test with SR, 13.2 µM (inactive); in the test on HOP-62 it was 17.7 µM (inactive); in the test with SK-MEL-2, 12.6 µM (inactive); in the test on LOX IMVI it was 14.2 µM (inactive); in the test on SF-539, 10.7 µM (inactive). Besides, the GI50 is 7.53 µM (inactive) in the test on EKVX; 16.1 µM (inactive) in the test on SK-MEL-28; 16.7 µM (inactive) in the test with UACC-62; 5.26 µM (inactive) with M14; 13.5 µM (inactive) with T47D; 14.4 µM (inactive) with 786-0. Further, the GI50 in the test on OVCAR-5 is 13.7 µM (inactive); with COLO 205, 5.75 µM (inactive).
